Tests used:
human recombinant FAAH = target: T1, human recombinant FAAH (Homo sapiens, UniProt O00519); test: FAAH inhibition enzymatic assay (Arachidonoyl-AMC substrate); format: biochemical; conditions: 30 minute incubation; geometric mean; read-out: FAAH (T = 30 min) IC50
T1 construct: purchased Cayman 10010183
T1 sequence (O00519 1-579): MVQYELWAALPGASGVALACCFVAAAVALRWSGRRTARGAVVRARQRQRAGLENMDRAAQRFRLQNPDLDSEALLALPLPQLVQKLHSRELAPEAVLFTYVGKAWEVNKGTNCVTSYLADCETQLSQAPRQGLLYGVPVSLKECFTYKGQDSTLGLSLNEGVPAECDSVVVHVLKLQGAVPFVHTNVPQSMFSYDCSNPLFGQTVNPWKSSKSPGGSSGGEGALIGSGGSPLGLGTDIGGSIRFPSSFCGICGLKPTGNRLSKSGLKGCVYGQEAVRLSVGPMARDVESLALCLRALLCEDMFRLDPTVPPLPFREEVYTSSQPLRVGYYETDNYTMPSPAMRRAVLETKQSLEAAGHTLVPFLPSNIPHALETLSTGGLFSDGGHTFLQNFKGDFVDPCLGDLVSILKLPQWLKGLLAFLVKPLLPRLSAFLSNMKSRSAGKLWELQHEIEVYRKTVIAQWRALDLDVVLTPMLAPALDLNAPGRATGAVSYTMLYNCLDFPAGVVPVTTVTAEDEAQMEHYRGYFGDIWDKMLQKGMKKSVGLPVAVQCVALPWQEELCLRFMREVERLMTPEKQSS
Procedure: Assessment of FAAH inhibition utilizes human recombinant FAAH and the fluorescent substrate, Arachidonoyl-AMC. 400 nL of a test compound at decreasing concentrations was spotted into a 384-well back plate (PerkinElmer, 6007279) using a Labcyte Echo, followed by addition of 10 μl of FAAH enzyme (Cayman 10010183) in assay buffer (50 mM Tris, pH 9.0, 1 mM EDTA, i.e. ethylenediaminetetraacetic acid). After a 30 minute incubation at room temperature, 10 μL of Arachidonyl-AMCA was added in assay buffer with 16% DMSO. […] The reaction was allowed to progress for 60 minutes, after which the plate was read on a Molecular Devices FlexStation reader at an Ex/Em of 355/460. Percent inhibitions were calculated based on controls wells containing either no compound (0% inhibition) or a control compound (e.g., an FAAH inhibitor whose activity is known or was previously reported in the literature, such as one with about 100% inhibition). IC50 values were generated based on a four parameter fit model using ABASE software from IDBS.

[1] = In vitro intrinsic clearance in human liver microsomes (HLM); format: in vitro ADME; conditions: pH 7.4, 1 μM substrate, NADPH, 37° C., read-out: HLM CLint, app
Procedure: Test Compounds (Example 1-3 and Comparative-Compounds 1-4) were prepared as solutions in DMSO. The final concentration of DMSO in the incubation was <0.1% (v/v). […] (all final concentrations) in a 384-well plate. The reaction mixture was pre-warmed at 37° C. for 10 min prior to initiation of the incubation. The incubation was quenched with acetonitrile containing internal standards at the following time points: 1, 4, 7, 12, 20, 25, 45, and 60 min (individual incubation plates per time point) with a subsequent addition of water. The samples were vortexed followed by centrifugation and the supernatant was analyzed by LC/MS-MS using multiple reaction monitoring. For control experiments, NADPH was omitted from the incubations.
The microsomal t½ (min) was obtained from a log-linear plot of the substrate depletion versus incubation time and was scaled to hepatic intrinsic clearance (CLint,app (μL/min/mg protein) using the following equation: […]

[2] = Dog intravenous pharmacokinetic study; format: in vivo, Male beagle dogs; conditions: male, beagle, IV dose of 1 mg/kg, plasma, read-out: Dog t1/2 (converted)
Procedure: The pharmacokinetic studies in dog were conducted at Pfizer Global Research and Development (Groton, Conn.). All in vivo studies were conducted in accordance with regulations and established guidelines using protocols reviewed and approved by the Pfizer Worldwide Research and Development (WRD, or other) Institutional Animal Care and Use Committee.
Male beagle dogs were fasted overnight with water provided ad libitium. The dogs were fed at approximately 2-4 h post-dose. The dogs (n=2) were administered an IV bolus via the cephalic vein. Compounds of Examples 1-3 were tested along with the following four comparative compounds.
All test compounds were administered an IV dose of 1 mg/kg of the specified compound which was delivered in a dose volume of 0.5 mL/kg. The dose solution was formulated in 10% PEG400/90% of 23% (w/v) HPBCD in de-ionized water for the following test compounds: Example 1, Example 2, and Example 3; in 20% SBECD (sulfobutyl either β-cyclodextrin) for Comparative-Compound 3; in 23% (w/v) HPBCD (hydroxypropyl β-cyclodextrin) in water for Comparative Compound 2; in 12.5.% SBECD in water with 0.25% 0.1N HCl to pH 5 for Comparative Compound 1. Serial blood samples were collected from each dog via the jugular vein prior to dose administration and at the following time points post-dose: 0.083, 0.25, 0.5, 1, 2, 4, 7, and 24 h for all compounds with an additional time point of 0.016 h collected for Comparative Compound 1 only. Blood samples were collected into tubes containing EDTA and placed on wet ice. Following centrifugation to afford plasma, the samples were transferred to polypropylene tubes and stored frozen at −20° C. to −80° C. until analysis.
All plasma samples were quantified via liquid chromatography/tandem mass spectrometry (LC/MS-MS) using multiple reaction monitoring with non-validated methods. The plasma standard curves were generated with species specific plasma. Pharmacokinetic parameters were determined by non-compartmental analysis using Watson LIMS software version 7.4 (Thermo Fisher Scientific, Waltham, Mass.). The area under the concentration versus time curve (AUC) was calculated from the first time point to the last time point with measurable drug concentration using a linear trapezoidal rule. The area under the concentration versus time curve from the first time point to time infinity (AUC(0-inf)) was calculated by extrapolation from the time point where the last measurable concentration occurred to time infinity by dividing the observed concentration at the last time point by the elimination rate constant determined using linear regression of plasma concentration versus time data. The plasma clearance (CLp) was calculated by the equation CLp=dose/AUC(0-inf). The elimination half-life (t½) was calculated using the following equation t1/2=ln 2/k; k is equal to the rate constant of elimination calculated by the least squares of the log transformed data.

| SMILES | IC50 (human recombinant FAAH) [µM] | microsomal CLint at 1 μM [1] [µL/min/mg] | half-life [2] [h] |
| --- | --- | --- | --- |
| O=C(OC(C(F)(F)F)C(F)(F)F)N1CCC2(CCC(NS(=O)(=O)CC3CC3)CO2)CC1 (stereo not drawn) [Example 3, 1,1,1,3,3,3-Hexafluoropropan-2-yl 3-{[(cyclopropylmethyl)sulfonyl]amino}-1-oxa-9-azaspiro[5.5]undecane-9-carboxylate] | > 30 | < 8 | 26.3 |
| O=C(OC(C(F)(F)F)C(F)(F)F)N1CCC2(CC1)C[C@@H](NS(=O)(=O)CC1CC1)CO2 [Example 1, 1,1,1,3,3,3-Hexafluoropropan-2-yl (3R)-3-{[(cyclopropylmethyl)sulfonyl]amino}-1-oxa-8-azaspiro[4.5]decane-8-carboxylate] | > 30 | < 8 | 16.9 |
| O=C(OC(C(F)(F)F)C(F)(F)F)N1CCC2(CC1)C[C@@H](NS(=O)(=O)C1CC1)CO2 [Example 2, 1,1,1,3,3,3-Hexafluoropropan-2-yl (3R)-3-[(cyclopropylsulfonyl)amino]-1-oxa-8-azaspiro[4.5]decane-8-carboxylate] | > 30 | < 8 | 40.7 |

Reference: US20210309669A1, “Heterocyclic Spiro Compounds As MAGL Inhibitors” (Pfizer Inc., priority 2018, published 2021)
